Data set [1] is described as follows: Inhibition of LPS-induced nitric oxide production in […] BV-2 cells at 20 uM measured after 24 hrs by Griess reagent assay relative to control. The settings on record: for inhibition at 20 µM: BV-2, 24 h. It is filed as functional, Mus musculus. A general note: Griess reagent forms a coloured azo dye with nitrite.
Data set [2] can be described thus: Cytotoxicity against LPS-induced […] BV-2 cells assessed as cell viability at 20 uM measured after 24 hrs by MTT assay relative to control. The settings on record: for viability at 24 h, 20 µM: LPS-induced BV-2 cells, read-out: Activity. It is filed as cell-based. Background: Formazan colour is commonly taken as a measure of viable cells.
Data set [3] concerns BV-2. Kind of data set: (§1) Inhibition of LPS-induced nitric oxide production in […] BV-2 cells measured after 24 hrs by Griess reagent assay. It is filed as functional, cell-based.
Data set [4] can be described thus: as §1. It is filed as functional, cell-based. The settings on record: BV-2, 24 h.
Data set [5] concerns BV-2. Kind of data set: Inhibition of LPS-induced nitric oxide production in […] BV-2 cells assessed as decrease in iNOS protein expression pretreated with LPS for 1 hr and measured after 18 hrs by immunoblot analysis. It is filed as functional, cell-based. The settings on record: dose 2-20 µM, time 19.0 hrs.
In data set [6] the test system is BV-2. Kind of data set: Inhibition of LPS-induced nitric oxide production in […] BV-2 cells assessed as decrease in iNOS mRNA expression pretreated with LPS for 1 hr and measured after 6 hrs by RT-PCR analysis. It is filed as functional, cell-based. The settings on record: dose 2-20 µM, time 7.0 hrs.
Data set [7] in a line: Cytotoxicity against LPS-induced […] BV-2 cells assessed as cell viability at 12.5 to 50 uM measured after 24 hrs by MTT assay. It is filed as cell-based. The settings on record: bv-2, 24 h, dose 12.5-50 µM.
A short description of data set [8]: Inhibition of LPS-induced nitric oxide production in […] BV-2 cells at 12.5 to 50 uM measured after 24 hrs by Griess reagent assay relative to control. The settings on record: dose 12.5-50 µM. It is filed as functional.
Another data set in a line: cells. The settings on record: Homo sapiens, BV-2, 24 h, read-out: INH.

19 molecules from ChEMBL document CHEMBL4706652, “Synthesis of 4-(3-oxo-3-phenylpropyl)morpholin-4-ium chloride analogues and their inhibitory activities of nitric oxide production in lipopolysaccharide-induced BV2 cells” (Bioorg Med Chem Lett, 2021) can be followed below.

Structures can show the parent of a compound that is named as a salt. Where only a bound is given, the exact number is not on record here.

Description for cells: Inhibition of LPS-induced nitric oxide production in human BV-2 cells at 10 uM measured after 24 hrs by Griess reagent assay relative to control

In general, IC50 refers to the concentration that gives 50% inhibition. Read a high IC50 as weaker potency. Molecule `O=C(CCN1CCOCC1)c1ccccc1C(F)(F)F` displayed an inhibition at 20 µM in data set [1] of 78.3%. Further, the viability at 24 h, 20 µM in data set [2] stood at 100%. Further, the inhibition result with BV-2 [3], in the data set on BV-2 [5] and in the data set on BV-2 [6] was “Dose-dependent effect” in each case. This molecule yielded an IC50 in [4] of 8.6 µM.

Molecule `O=C(Cc1ccccc1)CN1CCOCC1` returned an inhibition at 20 µM in data set [1] of 17.4%. In addition, the viability at 24 h, 20 µM in data set [2] is 100%.

In turn, `O=C(CCN1CCOCC1)c1ccccc1` gave an inhibition at 20 µM in data set [1] of 31.8%. The viability at 24 h, 20 µM in [2] turned out to be 99.8%.

On to `Cc1ccc(C(=O)CCN2CCOCC2)cc1`, for which, in data set [1], the inhibition at 20 µM was 36%. In [2], the viability at 24 h, 20 µM was 100%.

For `O=C(CCN1CCOCC1)c1ccc(O)cc1`, the inhibition at 20 µM in data set [1] was found to be 26.5%. For the same molecule, in data set [2], the viability at 24 h, 20 µM is 99%.

Consider `Cl.O=C(CCN1CCOCC1)c1ccccc1`, for which the figures for the “inhibition (INH)” value in data set [1] and in [8] were 29.3% and 49%, respectively. Also, the Activity is listed as 96.7% in data set [2] (bv-2, 24 h, 20 µM) and “Non-Toxic” in [7]. The same molecule displayed an IC50 in data set [4] of more than 50 µM.

The molecule `O=C(CCN1CCOCC1)c1ccc([N+](=O)[O-])cc1` registered an inhibition at 20 µM in data set [1] of 73.1%. The viability at 24 h, 20 µM in data set [2] was 98.3%.

`O=C(CCN1CCOCC1)c1cccc(C(F)(F)F)c1`: in data set [1], the inhibition at 20 µM is 44.6%. For the same molecule, the viability at 24 h, 20 µM in data set [2] came out at 100%.

`CN(C)c1ccc(C(=O)CCN2CCOCC2)cc1` registered an inhibition at 20 µM in data set [1] of 32.8%. For the same molecule, the viability at 24 h, 20 µM in [2] was 100%.

Consider `O=C(CCN1CCOCC1)c1ccc(F)cc1`, for which, in data set [1], the inhibition at 20 µM came to 35.2%. For the same molecule, in data set [2], the viability at 24 h, 20 µM came out at 95%.

With `O=C(CCN1CCOCC1)c1ccc(C(F)(F)F)cc1`, the inhibition at 20 µM in [1] is 50.3%. Further, in [2], the viability at 24 h, 20 µM came to 96.1%.

Molecule `O=C(CCN1CCOCC1)c1ccc(I)cc1` displayed an inhibition at 20 µM in data set [1] of 41.6%. Also, in data set [2], the viability at 24 h, 20 µM was found to be 89.4%.

On to `COc1ccc(C(=O)CCN2CCOCC2)cc1`, for which the inhibition at 20 µM in [1] was determined as 33.3%. For the same molecule, the viability at 24 h, 20 µM in data set [2] is 100%.

In the case of `CNCCC(Oc1ccc(C(F)(F)F)cc1)c1ccccc1` (centres undefined) [FLUOXETINE HYDROCHLORIDE], the inhibition at 10 µM in “cells” was found to be 31.2%.

Molecule `O=C(CCN1CCOCC1)c1ccc(Cl)cc1` returned an inhibition at 20 µM in data set [1] of 40.3%. In data set [2], the viability at 24 h, 20 µM is 100%.

Molecule `O=C(CC(=O)N1CCOCC1)c1ccccc1` yielded an inhibition at 20 µM in data set [1] of 20.1%. Besides, the viability at 24 h, 20 µM in data set [2] was determined as 99.7%.

Molecule `O=C(CCN1CCOCC1)c1ccc(Br)cc1` registered an inhibition at 20 µM in data set [1] of 41.6%. Also, the viability at 24 h, 20 µM in [2] worked out at 100%.

On to `O=C(CN1CCOCC1)C(=O)c1ccccc1`, for which, in data set [1], the inhibition at 20 µM is 19.2%. The viability at 24 h, 20 µM in data set [2] stood at 100%.

For the molecule `Nc1ccc(C(=O)CCN2CCOCC2)cc1`, in data set [1], the inhibition at 20 µM turned out to be 25.2%. The viability at 24 h, 20 µM in data set [2] came out at 100%.
